Results taken from the supplement of paper PMC8633005.

Legend:
WM165 = assay: drug sensitivity score (DSS) (DSS (unitless, 0-50 scale)); higher = more sensitive (stronger viability inhibition); extreme values may be limits of the assay; conditions: 72 h; culture: 2D
Summary of the method: (§1)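 Patient-derived melanoma cultures (1000–1500 cells per well) and melanoma cell lines were grown in 2D in 384-well plates holding a 527-compound oncology library. Each compound was dissolved in DMSO or water and tested at five concentrations spanning a 10,000-fold range. After 72 h at 37 °C, viability was read by CellTiter-Glo luminescence. A drug sensitivity score, a modified area-under-curve measure, was derived from dose-response curves fitted in the in-house Breeze software.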

FM-MEL-2 [1] = assay: as above; conditions: 72 h; culture: 2D
Summary of the method: as §1

Bowes = assay: as above; conditions: 72 h; culture: 2D
Summary of the method: as §1

WM852 = assay: as above; conditions: 72 h; culture: 2D
Summary of the method: as §1

SK-MEL-2 = assay: as above; conditions: 72 h; culture: 2D
Summary of the method: as §1

FM-MEL-3 [2] = assay: as above; conditions: 72 h; culture: 2D
Summary of the method: as §1

FM-MEL-6 [3] = assay: as above; conditions: 72 h; culture: 2D
Summary of the method: as §1

SK-MEL-28 = assay: as above; conditions: 72 h; culture: 2D
Summary of the method: as §1

FM-MEL-2 [4] = conditions: 72 h
Description: (§2)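 Validation dose-response testing of selected drugs on NRAS-mutant melanoma patient-derived cells, run in 2D culture and in 3D spheroids (ultra-low attachment plates), in triplicate per concentration. Viability was read by CellTiter-Glo after 72 h. EC50 came from Breeze curve fitting, and DSS was calculated from the curve.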

FM-MEL-3 [5] = conditions: 72 h
Description: as §2

FM-MEL-6 [6] = conditions: 72 h
Description: as §2

FM-MEL-2 [7] = assay: drug sensitivity score (DSS) (DSS (unitless)); higher = more sensitive; conditions: 72 h
Description: as §2

FM-MEL-3 [8] = assay: as above; conditions: 72 h
Description: as §2

FM-MEL-6 [9] = assay: as above; conditions: 72 h
Description: as §2

| SMILES | drug sensitivity score (WM165) | drug sensitivity score (FM-MEL-2 [1]) | drug sensitivity score (Bowes) | drug sensitivity score (WM852) | drug sensitivity score (SK-MEL-2) | drug sensitivity score (FM-MEL-3 [2]) | drug sensitivity score (FM-MEL-6 [3]) | drug sensitivity score (SK-MEL-28) | EC50 (cell viability) (FM-MEL-2 [4]; culture: 2D) | EC50 (cell viability) (FM-MEL-2 [4]; culture: 3D spheroid) | EC50 (cell viability) (FM-MEL-3 [5]; culture: 2D) | EC50 (cell viability) (FM-MEL-3 [5]; culture: 3D spheroid) | EC50 (cell viability) (FM-MEL-6 [6]; culture: 2D) | EC50 (cell viability) (FM-MEL-6 [6]; culture: 3D spheroid) | drug sensitivity score (FM-MEL-2 [7]; culture: 2D) | drug sensitivity score (FM-MEL-2 [7]; culture: 3D spheroid) | drug sensitivity score (FM-MEL-3 [8]; culture: 2D) | drug sensitivity score (FM-MEL-3 [8]; culture: 3D spheroid) | drug sensitivity score (FM-MEL-6 [9]; culture: 2D) | drug sensitivity score (FM-MEL-6 [9]; culture: 3D spheroid) |
| --- | --- | --- | --- | --- | --- | --- | --- | --- | --- | --- | --- | --- | --- | --- | --- | --- | --- | --- | --- | --- |
| COc1cccc(OCCCN)c1-c1cc(Nc2cnc(C#N)cn2)n[nH]1 [Prexasertib] | 24.1 | 10.5 | 28.6 | 27.7 | 28.7 | 19.1 | 26.6 | 8.6 | 851 nM | 2030 nM | 52 nM | 48.7 nM | 137 nM | 6570 nM | 7.7 | 4.9 | 21.1 | 25.6 | 6.4 | 0.8 |
| CNc1ncc2cc(-c3cc(NC(=O)NCCC(C)(C)C)c(F)cc3C)c(C)nc2n1 | 25.4 | 19.9 | 7.4 | 10.2 | 15.2 | 25.4 | 14.4 | 20.3 | 59.3 nM | 59.8 nM | 83.3 nM | 64.9 nM | 187 nM | 97.3 nM | 20.6 | 20.8 | 24.5 | 26.6 | 11.3 | 16.9 |
| O=C(Nc1ccc2[nH]nc(-c3ccncc3)c2c1)[C@@H]1CCN(CC(=O)N2CCN(c3ccc(-c4ncccn4)cc3)CC2)C1 | 21.2 | 20.8 | 1.3 | 8.2 | 15.6 | 22.8 | 12.7 | 21.8 | 206 nM | 54.5 nM | 97.1 nM | 69 nM | 210 nM | 120 nM | 17.7 | 25 | 22.5 | 26.2 | 11.2 | 17.2 |
| O=C(Nc1cccnc1)N1CCC(Cc2cccc(Oc3ccc(C(F)(F)F)cn3)c2)CC1 [PF-3845] | 1 | 0 | 3.8 | 4 | 0 | 0.1 | 0 | 0 | – | – | – | – | – | – | – | – | – | – | – | – |
| CCCc1cc(C)[nH]c(=O)c1CNC(=O)c1cc(-c2ccnc(N3CCN(C)CC3)c2)cc2c1cnn2C(C)C [GSK343] | 0 | 0.1 | 0 | 0 | 0.1 | 0.2 | 0 | 0 | – | – | – | – | – | – | – | – | – | – | – | – |
| NC(=O)NO [Hydroxyurea] | 0.1 | 0 | 2.4 | 0 | 0 | 6.8 | 2.2 | 0 | – | – | – | – | – | – | – | – | – | – | – | – |
| Cc1nc2cccc(N)c2c(=O)n1C1CCC(=O)NC1=O (stereo not drawn) [CC122] | 0 | 0 | 0 | 0 | 0 | 0.2 | 1.3 | 0 | – | – | – | – | – | – | – | – | – | – | – | – |
| CCc1cnn2c(NCc3ccc[n+]([O-])c3)cc(N3CCCC[C@H]3CCO)nc12 [Dinaciclib] | 22.4 | 13.1 | 30.7 | 20 | 21.2 | 18.5 | 21.7 | 20.2 | – | – | – | – | – | – | – | – | – | – | – | – |
| O=C(Nc1ccncc1)C(=O)c1cn(Cc2ccc(Cl)cc2)c2ccccc12 [Indibulin] | 7.8 | 1.4 | 11.1 | 5.3 | 3.7 | 6.1 | 6.9 | 4 | – | – | – | – | – | – | – | – | – | – | – | – |
| FC(F)c1nc2ccccc2n1-c1nc(N2CCOCC2)nc(N2CCOCC2)n1 [ZSTK474] | 9 | 10.8 | 7 | 7 | 4.6 | 7.2 | 8.7 | 12.2 | – | – | – | – | – | – | – | – | – | – | – | – |
| CC(C)(C)c1cnc(CSc2cnc(NC(=O)C3CCNCC3)s2)o1 [SNS-032] | 25 | 12.7 | 31.8 | 18.2 | 19.2 | 19.2 | 26.1 | 18.9 | – | – | – | – | – | – | – | – | – | – | – | – |
| CC(C)C(=O)Nc1ccc([N+](=O)[O-])c(C(F)(F)F)c1 [Flutamide] | 0 | 0 | 0.1 | 0.5 | 0 | 0.5 | 0 | 0 | – | – | – | – | – | – | – | – | – | – | – | – |
| COc1cc([C@@H]2c3cc4c(cc3[C@@H](O[C@@H]3O[C@@H]5CO[C@@H](C)O[C@H]5[C@H](O)[C@H]3O)[C@H]3COC(=O)[C@H]23)OCO4)cc(OC)c1O [Etoposide] | 19.1 | 2.9 | 2.7 | 0.4 | 2.6 | 4 | 5.7 | 5.9 | – | – | – | – | – | – | – | – | – | – | – | – |
| COCCNCc1ccc(-c2cc3nccc(Oc4ccc(NC(=S)NC(=O)Cc5ccc(F)cc5)cc4F)c3s2)nc1 [Glesatinib] | 0 | 0.4 | 0 | 0 | 0 | 0 | 0 | 0 | – | – | – | – | – | – | – | – | – | – | – | – |
